Reference: patent US10946109B2, “Polymer-type fluorescent molecule probe” (HIROSHI MAEDA, priority 2011, dated 2021)

System: Human pancreatic cancer cells PC1.0
Test: cells
Conditions: light or radiation study
Procedure: Human pancreatic cancer cells PC1.0 were plated in 96 well culture plate at 1000 cells/well and cultured overnight. Then, methylene blue (MB) or SMA-methylene blue (SMA-MB) micelle was added to the cultured cells above, and allowed to culture another 48 hours. Light irradiation was carried out using tungsten xenon lamp at 15 cm distance from the cell surface for 20 min. Then, the survival rate of the cells was quantified by MTT Method.

IC50: 500 nM
IC50 (48 h): 4500 nM
Structure (SMILES): CN(C)c1ccc2nc3ccc(=[N+](C)C)cc-3sc2c1 [Methylene blue, methylene blue]
